Results on eight compounds are retold here after patent publication US8128948B1, “Compositions and methods for attracting Anastrepha species” (The United States of America as represented by the …, priority 2007, dated 2012).

Where only a bound is given, the exact number is not on record here.

Common to all, as to format: physicochemical
Data set [1] in a line: Hydrolysis of the dehydration analog. The note with it: for distribution of products (rel. % of loss; x±s; n=6): hydrolysis of the dehydration analog, 3 day, pH 5.5, 35° C.
Data set [2] can be described thus: 1H-NMR monitored hydrolysis of suspensolide. As to conditions: 36 μL acetonitrile-d3 + 4 μl D2O; 27° C. On the procedure:
Experiments were performed in a 2.0 mm capillary at 27° C. using a Bruker Avance 500 Console, Magnex 11.75 T/54 mm Magnet, and a 2.5 mm TXI probe (non spun). Spectra (64 scans) were acquired with 2.5 acquisition time and processed with ½ Hz line broadening.
Results and Discussion: Pentane extracts of male salivary glands that were added to water (pH 5.5) and rapidly stirred for 5 min at 25° C. yielded products within both phases that matched those obtained from pentane extraction of crops and oral secretions (FIG. 5). ^1H-Nuclear Magnetic Resonance (NMR) spectroscopy was then employed to directly observe the hydrolysis; the original vinyl and methyl proton signals disappeared over 3 h after a 4 μL addition of D2O to suspensolide in 36 μL acetonitrile-d3 (FIG. 6). In comparison, the loss of suspensolide in batch hydrolysis studies occurred much more rapidly (<2 min) over pH 3-10.

Data set [3] can be described thus: Batch hydrolysis of suspensolide in aqueous buffers. The procedure: Buffers at 25° C. were transferred (1 mL) to 9-mm amber crimp-top (Teflon®-sealed) 2-mL GC vials. Suspensolide in anhydrous acetonitrile or methanol (50 μL) was added to afford initial aqueous concentrations of 0.9 mM and the solution was rapidly mixed for 10 s on a vortex Genie® mixer. Aqueous samples (10 μL) were removed with a 25-μL syringe and combined with 2 μL ACN containing 6 μg (+)-sclareolide as an external standard for HPLC.
GC was used to quantify lactones at the conclusion of each experiment. Hexane (1 mL), containing […] of tetradecane as an internal standard, was added to the vials and extractable analytes were removed from the water by rapidly mixing for 2 min on a vortex Genie® mixer. Emulsions were broken with NaCl, after which the hexane layer was transferred to vials for analysis by GC. The remaining solution was concentrated to dryness via Speed Vac® and dissolved in a methanolic solution of diazomethane. Extraction with pentane and subsequently H2O (0.5 mL each) yielded methyl esters amenable to GC within the organic phase. Initial suspensolide concentrations were measured (quadruplicate) via analogous introduction into 1 mL hexane+internal standard.

Take “γ-hydroxy acid of epianastrephin [epianastrephin γ-hydroxy acid]”: the “distribution of products (rel. % of loss; x±s; n=6)” value in data set [1] came to 3.6±2.3%.
On the same count and under the same terms, the figure for `C=CC1(C)CCCC2(C)OC(=O)CC12` (stereo not drawn) [“cis-fused” anastrephin] is 5.8±4.2%.
On the same count and under the same terms, the figure for `C=CC1(C)CCCC2(C)OC(=O)CC12` (stereo not shown) [epianastrephin, reference compound] is 1.7±1.2%; for `C=C[C@@]1(C)CCC[C@]2(C)OC(=O)C[C@@H]12` [anastrephin, reference compound] it is 17.3±4.2%.
Same read-out and setting: with “γ-hydroxy acid of anastrephin [anastrephin γ-hydroxy acid]” the figure was 38.6±5.1%; with `C=CC1(C)CCCC2(C)OC(=O)CC12` (stereo not drawn) [“cis-fused” epianastrephin], 1.1±0.5%.
In turn, `C=CC1(C)CCCC(C)=C1CC(=O)O` (stereo not shown) [dehydration analog, 2,6-dimethyl-6-vinyl-cyclohexeneacetic acid] came in with a loss on hydrolysis in data set [1] (3 day time course, pH 5.5 and 35° C.) of approximately 15%.
Take `C/C1=C/COC(=O)C/C=C(/C)CCC1` [suspensolide, (3E,8E)-suspensolide]: in data set [2], the “time over which suspensolide was hydrolyzed (1H-NMR)” value was approximately 3 h. The “level of 7a-epimer “cis-fused” equivalents among hydrolysis products” value in data set [3] (FIG. 4) is less than 5%. In addition, in data set [3] (in 18OH2 at pH 5, FIG. 13), the “epianastrephin to anastrephin ratio of γ-hydroxy acids formed by hydrolysis” value is approximately 2.5. The “time for loss of suspensolide in batch hydrolysis” value in data set [3] (over pH 3-10) is reported as less than 2 min. Besides, the “time for hydrolysis to product distribution III>II>>IV>>>I” value in data set [3] (pH 5-6 and 25° C.) is on record as less than 2 min. Further, in data set [3] (pathways II and III, FIG. 4), the “epianastrephin to anastrephin product ratio of hydrolysis” value was approximately 2.5.
